# In patent publication US12029730B2, “Pharmaceutical composition for preventing or treating cancer, containing N-1H-benzimidazol-2-yl-3-(1H-pyrrole-1-yl)benzamide as active ingredient” (KOREA INSTITUTE OF RADIOLOGICAL & MEDICAL SCIENCES, priority 2018, dated 2024):
# Test system: MASTL kinase (phosphorylated ENSA)
# Assay: Immunofluorescence staining of phosphorylated ENSA (Ser67)/ARPP19 (ser62) in MCF7
# Type: cell-based, human
# Conditions: with Colcemid 16 to 18 hours, FIG. 4
# Protocol: After culturing 2.5×10^4 MCF7 cells in a 6-well plate for 24 hours, 80 ng/mL of a MASTL kinase inhibitor and a cell cycle control agent Colcemid (KaryoMAX™ Colcemid™ Solution in PBS; Gibco) were treated for 16 to 18 hours. After washing with phosphate buffered saline for fixation and permeabilization of cells, 4% paraformaldehyde and 0.2% Triton-X were added and reacted for 10 minutes, respectively. After 1 hour pretreatment with 5% fetal bovine serum, 1:100 diluted antibody against phosphorylated ENSA (Ser67)/ARPP19 (ser62) was treated for 16 hours, and then it was washed with 0.1% Triton X-100/phosphate buffered saline solution (Tritonx-100/PBS) 3 times. Alexa488-conjugated secondary antibody (AP132JA4, Invitrogen) was reacted for 2 hours at room temperature to label, and phosphorylated ENSA was photographed and analyzed using IN Cell Analyzer 6000 (GE Healthcare Life Science).
smiles,measurement,value
"O=C(Nc1nc2ccccc2[nH]1)c1cccc(-n2cccc2)c1 [MKI-1, N-1H-benzimidazol-2-yl-3-(1H-pyrrol-1-yl) benzamide]",phosphorylation of ENSA in MCF7 relative to DMSO,close to about half of that of DMSO
